Measurements: ChEMBL document CHEMBL1201862, “PubChem BioAssay data set” (2004)
Active and inactive are the calls of the source.

How the values were obtained:
[1] = viability of PTEN-deleted HCT116 cells – cell-based, HCT116 PTEN knockout, dose response (AID 1047); type: functional;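 note: HCT116 colon tumor cells with PTEN knocked out; cells exposed to compound for 60 hours before readout; potency for loss of cell viability measured by luminescence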
[2] = HEK-293T cell viability reduction – luminescence, B-cell screen hits, cytotoxicity control for BCR NF-kB inhibitor project, dose response (AID 489021); type: functional, cell-based;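 note: HEK-293T cells carrying an NF-kB luciferase reporter; cells exposed to compound for about 14 hours before viability readout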
[3] = viability of HCT116 lacking mutant beta-catenin – cell-based, human colon tumor, dose response (AID 1045); type: functional;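 note: HCT116 colon tumor cells with beta catenin knocked out; cells exposed to compound for 60 hours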
[4] = molecular target: Nucleotide-binding oligomerization domain-containing protein 2 (Homo sapiens, UniProt Q9HC29); assay: inhibition of NOD2-driven NF-kB reporter – cell-based, luminescence, uHTS, HEK293 (AID 1566); type: functional
Chain of Nucleotide-binding oligomerization domain-containing protein 2 (Q9HC29 whole entry, the tested form may be a part): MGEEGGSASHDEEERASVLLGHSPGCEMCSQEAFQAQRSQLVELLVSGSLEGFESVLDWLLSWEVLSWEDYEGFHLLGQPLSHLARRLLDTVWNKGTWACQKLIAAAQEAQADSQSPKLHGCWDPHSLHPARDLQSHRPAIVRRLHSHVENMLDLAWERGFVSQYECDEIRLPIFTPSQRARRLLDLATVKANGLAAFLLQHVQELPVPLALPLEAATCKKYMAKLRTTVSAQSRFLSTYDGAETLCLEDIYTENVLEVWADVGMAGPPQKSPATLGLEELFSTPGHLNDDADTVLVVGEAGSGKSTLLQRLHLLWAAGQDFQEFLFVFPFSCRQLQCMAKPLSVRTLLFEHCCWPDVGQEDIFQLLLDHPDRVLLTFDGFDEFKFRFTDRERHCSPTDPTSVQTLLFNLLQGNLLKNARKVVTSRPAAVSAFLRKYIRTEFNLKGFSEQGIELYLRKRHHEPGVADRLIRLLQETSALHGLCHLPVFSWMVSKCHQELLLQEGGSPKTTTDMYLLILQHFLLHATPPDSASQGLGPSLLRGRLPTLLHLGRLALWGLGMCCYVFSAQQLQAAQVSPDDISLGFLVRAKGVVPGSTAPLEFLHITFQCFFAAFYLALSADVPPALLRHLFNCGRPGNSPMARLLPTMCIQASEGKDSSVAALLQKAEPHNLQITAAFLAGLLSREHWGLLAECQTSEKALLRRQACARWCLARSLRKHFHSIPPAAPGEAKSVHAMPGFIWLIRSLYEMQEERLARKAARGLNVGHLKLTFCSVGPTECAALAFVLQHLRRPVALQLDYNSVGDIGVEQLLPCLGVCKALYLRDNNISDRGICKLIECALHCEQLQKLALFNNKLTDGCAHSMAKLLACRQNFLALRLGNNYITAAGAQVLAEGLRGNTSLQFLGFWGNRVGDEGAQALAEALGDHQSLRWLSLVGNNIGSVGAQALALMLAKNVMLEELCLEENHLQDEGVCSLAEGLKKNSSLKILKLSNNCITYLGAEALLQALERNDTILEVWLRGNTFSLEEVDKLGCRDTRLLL

[5] = system: HEK293; assay: inhibition of NOD1-driven NF-kB reporter – cell-based, luminescence, uHTS, primary screen (AID 1578); type: functional; conditions: Homo sapiens
[6] = alpha-synuclein stem-loop luciferase translation blockers – H4 neuroglioma cells, luminescence, confirmation (AID 1988); type: functional, cell-based
[7] = luciferase reporter signal suppression in cells – H4 neuroglioma cells, luminescence, dose response (AID 1990); type: functional, cell-based
[8] = system: HEK293; assay: cells; type: functional, cell-based; conditions: Homo sapiens
[9] = Luminescence Cell-Based Dose Response HTS to Identify Inhibitors of 5'UTR Stem-Loop Driven Prion Protein mRNA Translation in H4 Neuroglioblastoma Cells. [Related pubchem assays: 1827 (Project Summary), 1813 (Primary HTS)]; type: functional
[10] = system: HEK293; assay: cells; type: functional, cell-based; conditions: Homo sapiens; remark: listed apart in the source
[11] = system: HEK293; assay: cells; type: functional, cell-based; conditions: Homo sapiens; remark: listed apart in the source
[12] = system: HEK293; assay: NOD2 signaling inhibitors in MDP-stimulated cells, cell-based, uHTS, luminescence (AID 2001); type: functional; conditions: Homo sapiens
[13] = reduction of Shn3 3'UTR-driven luciferase in osteoblasts – cell-based, Clone20 osteoblasts, firefly luciferase, cherry-picked, dose response (AID 624132); type: functional;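 note: firefly luciferase luminescence from reporter carrying the Shn3 3'UTR in osteoblasts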
[14] = loss of viability in HepG2 cells – cell-based, CellTiter-Glo, cherry-picked, cytotoxicity control for Shn3 inhibitor project, dose response (AID 624134); type: functional
[15] = blockers of HIV-1 ZM109 envelope-driven cell-cell fusion – HeLa effector, CEM target cells, luciferase, cherry-pick, dose response (AID 652058); type: functional, cell-based;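 note: luciferase signal from HIV-1 Env mediated cell-cell fusion of effector and target cells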
[16] = blockers of HIV-1 envelope-mediated cell-cell fusion – cherry-pick, dose response (AID 652057); type: functional, cell-based
[17] = non-specific 3'UTR reporter inhibition in Clone20-Shn3RL – cell-based, Renilla luciferase, cherry-picked, counter-screen for Shn3 inhibitor project, dose response (AID 624133); type: functional
[18] = HIV-1 AD8 envelope cell-cell fusion blockers – cherry-pick, dose response (AID 652062); type: functional, cell-based;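 note: luciferase signal from cell-cell fusion driven by HIV-1 clade B AD8 Env; potency is for inhibitors of fusion seen as a drop in luminescence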
[19] = molecular target: Voltage-dependent T-type calcium channel subunit alpha-1H (Homo sapiens, UniProt O95180); type: functional;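 note: channel activity triggered by adding a high calcium stimulation buffer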
Chain of Voltage-dependent T-type calcium channel subunit alpha-1H (O95180 whole entry): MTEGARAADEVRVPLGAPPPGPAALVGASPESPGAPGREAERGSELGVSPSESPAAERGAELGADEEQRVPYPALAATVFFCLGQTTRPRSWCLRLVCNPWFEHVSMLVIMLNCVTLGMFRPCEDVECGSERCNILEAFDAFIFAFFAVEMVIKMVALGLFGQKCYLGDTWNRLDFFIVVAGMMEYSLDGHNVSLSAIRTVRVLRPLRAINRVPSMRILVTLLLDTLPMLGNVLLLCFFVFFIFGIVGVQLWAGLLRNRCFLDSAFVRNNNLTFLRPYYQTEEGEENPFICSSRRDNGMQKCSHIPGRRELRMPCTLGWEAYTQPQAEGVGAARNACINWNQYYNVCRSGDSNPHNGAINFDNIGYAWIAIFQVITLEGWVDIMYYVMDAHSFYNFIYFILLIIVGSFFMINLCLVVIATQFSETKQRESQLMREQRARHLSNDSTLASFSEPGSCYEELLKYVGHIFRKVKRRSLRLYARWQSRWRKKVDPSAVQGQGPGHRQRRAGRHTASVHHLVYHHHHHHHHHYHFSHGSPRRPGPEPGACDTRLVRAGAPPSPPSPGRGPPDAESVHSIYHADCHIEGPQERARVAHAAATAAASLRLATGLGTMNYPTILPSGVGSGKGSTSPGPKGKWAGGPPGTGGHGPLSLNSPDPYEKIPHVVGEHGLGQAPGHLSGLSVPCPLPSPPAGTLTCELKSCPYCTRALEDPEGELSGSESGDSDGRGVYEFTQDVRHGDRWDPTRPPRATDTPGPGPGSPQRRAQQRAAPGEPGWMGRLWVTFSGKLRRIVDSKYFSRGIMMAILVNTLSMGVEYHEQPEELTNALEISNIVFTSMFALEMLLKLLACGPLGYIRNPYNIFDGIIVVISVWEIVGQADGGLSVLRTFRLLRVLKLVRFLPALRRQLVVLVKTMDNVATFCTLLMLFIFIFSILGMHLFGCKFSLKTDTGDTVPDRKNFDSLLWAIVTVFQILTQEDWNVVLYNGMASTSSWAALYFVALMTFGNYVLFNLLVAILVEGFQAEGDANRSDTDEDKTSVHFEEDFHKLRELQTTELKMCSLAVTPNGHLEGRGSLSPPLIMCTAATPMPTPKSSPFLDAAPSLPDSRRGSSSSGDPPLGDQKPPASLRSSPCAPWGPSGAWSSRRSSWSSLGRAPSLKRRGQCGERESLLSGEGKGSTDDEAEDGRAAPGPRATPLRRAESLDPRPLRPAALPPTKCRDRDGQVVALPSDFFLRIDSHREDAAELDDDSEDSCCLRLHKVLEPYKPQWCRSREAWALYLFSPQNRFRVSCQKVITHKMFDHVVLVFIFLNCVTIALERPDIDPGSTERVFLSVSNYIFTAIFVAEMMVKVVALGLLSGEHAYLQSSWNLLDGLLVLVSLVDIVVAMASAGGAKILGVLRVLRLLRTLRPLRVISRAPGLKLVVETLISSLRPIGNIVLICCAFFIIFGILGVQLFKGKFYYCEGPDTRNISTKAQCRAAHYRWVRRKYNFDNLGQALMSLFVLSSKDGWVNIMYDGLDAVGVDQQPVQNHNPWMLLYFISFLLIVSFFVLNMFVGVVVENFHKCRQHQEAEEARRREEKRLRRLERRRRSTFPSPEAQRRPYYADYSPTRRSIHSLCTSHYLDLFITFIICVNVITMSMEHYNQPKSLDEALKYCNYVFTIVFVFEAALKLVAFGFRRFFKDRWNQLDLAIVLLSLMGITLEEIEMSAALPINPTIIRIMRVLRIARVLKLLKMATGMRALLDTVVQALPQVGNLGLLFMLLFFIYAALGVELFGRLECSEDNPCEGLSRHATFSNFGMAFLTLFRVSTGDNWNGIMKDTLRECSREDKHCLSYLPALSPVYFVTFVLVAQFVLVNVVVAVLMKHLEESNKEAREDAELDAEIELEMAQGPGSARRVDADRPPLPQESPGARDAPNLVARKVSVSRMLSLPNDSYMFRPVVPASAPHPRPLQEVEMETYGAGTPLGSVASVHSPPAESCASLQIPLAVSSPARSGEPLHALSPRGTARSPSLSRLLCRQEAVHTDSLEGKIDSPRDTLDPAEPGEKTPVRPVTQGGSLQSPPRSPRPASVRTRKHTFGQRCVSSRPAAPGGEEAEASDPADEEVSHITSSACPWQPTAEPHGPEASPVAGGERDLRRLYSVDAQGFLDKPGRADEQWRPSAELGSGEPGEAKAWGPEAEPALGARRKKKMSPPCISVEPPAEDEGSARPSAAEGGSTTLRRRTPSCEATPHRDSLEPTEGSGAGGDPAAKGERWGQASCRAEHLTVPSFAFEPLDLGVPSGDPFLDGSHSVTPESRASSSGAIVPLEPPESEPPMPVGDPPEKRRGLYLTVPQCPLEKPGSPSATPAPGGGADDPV

[20] = molecular target: Heat shock protein HSP 90-alpha (Homo sapiens, UniProt P07900); type: functional, organism-based
[21] = molecular target: T1, Zinc finger protein mex-5 (Caenorhabditis elegans, UniProt Q9XUB2); assay: potency of MEX-5 RNA-binding blockers – biochemical, C. elegans, fluorescence polarization, dose response (AID 1960)
T1 sequence (Q9XUB2 whole entry): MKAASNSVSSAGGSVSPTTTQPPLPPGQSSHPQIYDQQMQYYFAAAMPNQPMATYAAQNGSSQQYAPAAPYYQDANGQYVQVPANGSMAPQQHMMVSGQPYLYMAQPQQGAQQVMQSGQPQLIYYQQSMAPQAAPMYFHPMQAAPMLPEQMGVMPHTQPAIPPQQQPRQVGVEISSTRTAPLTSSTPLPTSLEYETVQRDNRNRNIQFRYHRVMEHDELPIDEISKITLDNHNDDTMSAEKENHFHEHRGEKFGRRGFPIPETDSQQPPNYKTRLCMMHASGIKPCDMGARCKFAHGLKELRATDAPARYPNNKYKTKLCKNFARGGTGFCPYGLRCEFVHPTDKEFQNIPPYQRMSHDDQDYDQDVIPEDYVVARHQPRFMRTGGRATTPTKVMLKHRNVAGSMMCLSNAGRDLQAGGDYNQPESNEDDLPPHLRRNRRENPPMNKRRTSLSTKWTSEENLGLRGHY

[22] = molecular target: T2, RNA-binding protein pos-1 (Caenorhabditis elegans, UniProt G5EF15); assay: disruptors of C. elegans POS-1 RNA interaction – biochemical, fluorescence polarization, dose response (AID 1964);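 note: purified POS-1 fused to maltose binding protein made in E. coli; potency of compounds blocking POS-1 binding to fluorescent RNA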
T2 sequence (G5EF15 whole entry): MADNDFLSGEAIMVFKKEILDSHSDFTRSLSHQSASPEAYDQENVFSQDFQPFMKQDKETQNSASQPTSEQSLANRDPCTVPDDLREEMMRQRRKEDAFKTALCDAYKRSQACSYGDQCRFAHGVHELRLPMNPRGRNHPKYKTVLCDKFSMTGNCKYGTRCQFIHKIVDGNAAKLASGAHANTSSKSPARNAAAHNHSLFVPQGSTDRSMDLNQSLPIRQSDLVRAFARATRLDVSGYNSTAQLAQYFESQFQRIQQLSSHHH

[23] = molecular target: T3, Coagulation factor XII (Homo sapiens, UniProt P00748); type: functional;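 note: activated factor XIIa alpha cleaving a fluorogenic AMC peptide substrate; inhibitor potency from loss of enzyme activity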
T3 sequence (P00748 whole entry): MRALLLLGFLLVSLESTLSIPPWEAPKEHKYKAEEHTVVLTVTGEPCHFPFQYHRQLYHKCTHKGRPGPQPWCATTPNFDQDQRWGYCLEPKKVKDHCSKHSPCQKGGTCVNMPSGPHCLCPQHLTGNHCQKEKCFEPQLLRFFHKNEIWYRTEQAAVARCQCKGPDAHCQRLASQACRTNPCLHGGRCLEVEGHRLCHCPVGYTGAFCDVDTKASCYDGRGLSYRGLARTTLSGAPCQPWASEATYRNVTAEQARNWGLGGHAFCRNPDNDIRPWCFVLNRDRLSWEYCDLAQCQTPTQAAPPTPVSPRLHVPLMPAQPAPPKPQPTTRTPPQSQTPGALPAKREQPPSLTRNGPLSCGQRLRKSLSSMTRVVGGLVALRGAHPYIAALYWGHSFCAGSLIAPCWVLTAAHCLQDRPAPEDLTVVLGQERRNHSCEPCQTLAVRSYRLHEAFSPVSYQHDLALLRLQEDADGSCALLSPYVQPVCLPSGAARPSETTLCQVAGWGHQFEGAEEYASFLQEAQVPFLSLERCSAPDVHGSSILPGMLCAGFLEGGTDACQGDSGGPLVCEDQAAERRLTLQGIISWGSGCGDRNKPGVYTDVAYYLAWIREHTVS

Q: With `COc1ccc(NC(=O)c2cc3c(Cl)nc4ccccc4c3s2)cc1OC` as the molecule, how does the EC50 [1] read?
A: The EC50 was 58.6 µM (active).

Q: What about the IC50 [2] of the same molecule?
A: The IC50 was > 80 µM (inactive).

Q: What about the EC50 [3] of the same molecule?
A: Its EC50 is 48.8 µM (active).

Q: Which EC50 [4] does the source give for `COc1ccccc1C(=O)NCc1ccc(-c2nc3ccccc3s2)cc1` here?
A: The EC50 was 6.29 µM (active).

Q: What about the EC50 [5] of the same molecule?
A: The EC50 was 6.77 µM (active).

Q: And the EC50 [6]?
A: Its EC50 is 312 nM (active).

Q: What about the EC50 [7] of the same molecule?
A: The EC50 was 15.2 µM (active).

Q: And the IC50 [8]?
A: Its IC50 is 1.93 µM (active).

Q: What about the EC50 [9] of the same molecule?
A: Its EC50 is > 120 µM (not active).

Q: And the IC50 [10]?
A: The IC50 was > 20 µM (inactive).

Q: And the IC50 [11]?
A: The IC50 was > 20 µM (inactive).

Q: What about the IC50 [12] of the same molecule?
A: The IC50 was 6.82 µM (inactive).

Q: For `Cc1cc(Cl)c(S(=O)(=O)N2CCSCC2)cc1OCC(=O)NC1CCCCC1`, which EC50 [4] is on record?
A: The EC50 was 7.37 µM (active).

Q: And the EC50 [5]?
A: Its EC50 is 2.58 µM (active).

Q: And the AC50 [13]?
A: The AC50 was 4.11 µM (active).

Q: And the AC50 [14]?
A: Its AC50 is 4.04 µM (active).

Q: And the AC50 [15]?
A: Its AC50 is 1.06 µM (active).

Q: And the AC50 [16]?
A: Its AC50 is 31.6 µM (active).

Q: And the AC50 [17]?
A: The AC50 was 5.08 µM (active).

Q: And the IC50 [8]?
A: The IC50 was 4.29 µM (active).

Q: What about the AC50 [18] of the same molecule?
A: Its AC50 is 4.1 µM (active).

Q: What about the IC50 [10] of the same molecule?
A: The IC50 was > 20 µM (inactive).

Q: What about the IC50 [11] of the same molecule?
A: Its IC50 is 9.2 µM (active).

Q: And the IC50 [12]?
A: The IC50 was 3.6 µM (active).

Q: With `Cc1ccc(CNC(=O)c2ccc(Cn3nc(C)c(Cl)c3C)o2)cc1` as the molecule, how does the EC50 [19] read?
A: Its EC50 is 5.77 µM (active).

Q: And the AC50 [20]?
A: The AC50 was 8.04 µM (active).

Q: For `O=C(c1ccccc1)c1cccc(NC(=O)c2ccc(Br)o2)c1`, which EC50 [19] is on record?
A: Its EC50 is 7.3 µM (active).

Q: Which EC50 [21] does the source give for `Cc1ccccc1Nc1nc(Cl)c(C=O)s1` here?
A: The EC50 was > 300 µM (not active).

Q: What about the EC50 [22] of the same molecule?
A: Its EC50 is > 300 µM (not active).

Q: And the IC50 [2]?
A: The IC50 was > 80 µM (inactive).

Q: With `CC12CCC(c3c(C(=O)N4CCOCC4)nn(-c4ccccc4)c31)C2(C)C` (stereo unspecified) as the molecule, how does the IC50 [23] read?
A: The IC50 was > 50 µM (inactive).
